Reference: paper PMC8233319, “Protein mimetic amyloid inhibitor potently abrogates cancer-associated mutant p53 aggregation and restores tumor suppressor function” (Nature Communications, 2021)
Each block holds one molecule with its values, some of them ahead of it.

What was measured:
[1] = target: T1, p53 (mutant R248W DBD-derived peptide pR248W) (Homo sapiens, UniProt P04637, R248W); experiment: intrinsic tryptophan fluorescence quenching titration (weak; no CETSA stabilization of R248W); type: binding
T1 construct: gene TP53

[2] = target: T2, p53 (mutant R175H) (Homo sapiens, UniProt P04637, R175H); experiment: CETSA in SK-BR-3 cells (Tm […] to […] °C at […]); type: cell-based
T2 construct: gene TP53; endogenous mutant p53 in SK-BR-3 cells

[3] = target: T1, p53 (mutant R248W DBD-derived peptide pR248W); experiment: intrinsic tryptophan fluorescence quenching titration (also HSQC NMR on R248W DBD and CETSA in MIA PaCa-2 cells); type: binding
[4] = target: the molecule itself; experiment: thioflavin T (ThT) amyloid aggregation kinetics; 25 uM peptide alone in PBS with 50 uM ThT, shaking, 37 °C, fluorescence every 5 min; self-assembly into amyloid

Kd [1]: 15.4 ± 0.8 µM
Molecule: COC(=O)c1ccc(NC(=O)c2ccc(NC(=O)c3ccc([N+](=O)[O-])c(OCC(=O)O)n3)c(OCc3ccccc3)n2)c(OCC(=O)O)n1 [ADH-1]

CETSA in SK-BR-3 cells (Tm 38.8 to 45.1 °C at 5 μM) [2]: 45.1 ± 1.2 °C
Kd [3]: 0.366 ± 0.013 µM
Molecule: CCCCOc1nc(C(=O)Nc2ccc(C(=O)Nc3ccc(C(=O)OC)nc3OCCCN)nc2OCCCN)ccc1[N+](=O)[O-] [ADH-6]

B1: pWT, WT p53 DBD-derived peptide (residues 248-273) (peptide, UniProt P04637 248-273, looked up)
peptide: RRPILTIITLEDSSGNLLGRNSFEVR
notes: source: synthetic peptide (Selleck Chemicals, Fmoc; purified in house by reverse-phase HPLC)
binding result [4]: binds
